Data taken from US20040057913A1, “Antioxidant and skin preparations for external use” (priority 2000, published 2004).

System: ICR male mouse
Assay: Mouse ear swelling suppressing activity (TPA-induced edema)
Assay type: in vivo
Details: applied to the ear 30 minutes before the TPA application; measured 4 hours after TPA; Mozuku extract 0.25 or 0.5 mg/ear, indomethacin 0.2 mg/ear (FIG. 4)
Protocol: Mouse ear swelling suppressing activity of the Mozuku extract was examined as follows. The thickness of the ear of an ICR male mouse (age: 5 weeks) was measured using a thickness gauge (Digimatic Indicator 543, manufactured by Mitsutoyo Co., Ltd.). The Mozuku extract was applied to the ear in the amount of 0.25 mg/ear or 0.5 mg/ear. As a comparative test, an indomethacin solution, prepared by dissolving indomethacin at a concentration of 1.0% in 70% acetone, was applied to the mouse ear in the amount of 0.2 mg/ear. 30 minutes after the application, 10 μl of a […] solution of 12-O-tetradecanoylphorbol-13-acetate (TPA) in 70% acetone was applied to the in and out sides of the mouse ear to induce a skin reaction. The thickness of the ear skin was measured after 4 hours at which the value of the swelling became the maximum. The ratio of the measured thickness to the thickness of the ear skin before the edema induction was calculated as the ratio of edema. The thickness of both the right and left ear skins was measured and the values were averaged to determine the ear skin thickness of the mouse.

## COc1ccc2c(c1)c(CC(=O)O)c(C)n2C(=O)c1ccc(Cl)cc1 [indomethacin]
  edema suppressing effect (ratio of edema, ear skin thickness): remarkable edema suppressing effect
